Results published in PMC6367708 (Journal of medicinal chemistry, 2018).

Key:
CYP17A1 [1] = target: T1, CYP17A1 (Homo sapiens, UniProt P05093); assay: Inhibition of CYP17A1-mediated progesterone 17α-hydroxylation; type: biochemical; details: for increase in IC50 for CYP17A1: relative to abiraterone
T1 sequence (P05093 with tags, fused parts or gaps limits assumed): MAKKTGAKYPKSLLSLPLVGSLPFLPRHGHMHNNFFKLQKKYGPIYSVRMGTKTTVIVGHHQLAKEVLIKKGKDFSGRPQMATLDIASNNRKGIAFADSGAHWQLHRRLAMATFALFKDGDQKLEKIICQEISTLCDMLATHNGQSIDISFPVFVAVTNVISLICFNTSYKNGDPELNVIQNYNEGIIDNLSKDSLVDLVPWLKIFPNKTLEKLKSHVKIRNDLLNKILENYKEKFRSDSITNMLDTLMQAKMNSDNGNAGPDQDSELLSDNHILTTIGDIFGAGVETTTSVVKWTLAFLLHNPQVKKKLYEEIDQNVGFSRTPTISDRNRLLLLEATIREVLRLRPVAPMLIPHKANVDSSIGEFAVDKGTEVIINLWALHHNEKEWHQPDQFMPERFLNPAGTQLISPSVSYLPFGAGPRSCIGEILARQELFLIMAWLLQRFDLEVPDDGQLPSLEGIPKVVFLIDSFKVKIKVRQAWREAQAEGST

CYP21A2 [2] = target: T2, CYP21A2 (Homo sapiens, UniProt P08686); assay: Inhibition of CYP21A2-mediated progesterone 21-hydroxylation; type: biochemical
T2 sequence (P08686 with tags, fused parts or gaps): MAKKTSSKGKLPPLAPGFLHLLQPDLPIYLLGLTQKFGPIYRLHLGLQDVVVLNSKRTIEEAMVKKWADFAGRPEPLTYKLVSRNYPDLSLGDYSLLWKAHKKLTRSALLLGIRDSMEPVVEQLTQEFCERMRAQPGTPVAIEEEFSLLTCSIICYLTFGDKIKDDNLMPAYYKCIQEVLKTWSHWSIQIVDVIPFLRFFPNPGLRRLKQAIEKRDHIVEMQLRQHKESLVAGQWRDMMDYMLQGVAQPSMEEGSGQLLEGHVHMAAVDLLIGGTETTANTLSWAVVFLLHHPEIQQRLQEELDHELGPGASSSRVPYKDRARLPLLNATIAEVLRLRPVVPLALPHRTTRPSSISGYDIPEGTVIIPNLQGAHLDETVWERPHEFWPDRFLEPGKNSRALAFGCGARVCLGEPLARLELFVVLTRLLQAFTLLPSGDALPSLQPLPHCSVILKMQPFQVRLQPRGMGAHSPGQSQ

CYP21A2 [3] = assay: as above; type: biochemical, human
CYP17A1 [4] = target: T1, CYP17A1; details: reported; cited from earlier work

In the case of `C[C@]12CC[C@H](O)C[C@@H]1C(=NO)C[C@@H]1[C@@H]2CC[C@]2(C)C(c3cccnc3)=CC[C@@H]12` [13b, 3β-Hydroxy-17-(3-pyridyl)-5α-androst-16-en-6-one oxime], the IC50 (CYP17A1 [1]) is reported as 16.5 ± 2.5 nM, the “increase in IC50 for CYP17A1” value (CYP17A1 [1]) is reported as “ca. 3 fold” and the IC50 (CYP21A2 [2]) is reported as 1390 ± 120 nM. For the same molecule, the “increase in IC50 for CYP21A2” value (CYP21A2 [2]; relative to abiraterone) was 43 fold.

For `C[C@]12CCC(=O)C=C1CC[C@@H]1[C@@H]2CC[C@]2(C)C(c3cccnc3)=CC[C@@H]12` [compound 4, 17-(3-Pyridyl)androsta-4,16-dien-3-one], the “decrease in the IC50 for CYP21A2” value (CYP21A2 [2]; relative to abiraterone) is given as 46 fold, the “selectivity for CYP21A2 over CYP17A1” value (CYP21A2 [3]) is given as 8.8 times and the “inhibition of CYP17A1” value (CYP17A1 [4]) is given as “comparably to abiraterone itself”.

In the case of `C[C@]12CC[C@H](O)CC1=CC[C@@H]1[C@@H]2CC[C@]2(C)C(c3ccccc3)=CC[C@@H]12` [3b, 17-Phenylandrosta-5,16-dien-3β-ol], the “increase in IC50 for CYP17A1” value (CYP17A1 [1]) is reported as “more than 4,000 fold” and the “increase in IC50 for CYP21A2” value (CYP21A2 [2]; relative to abiraterone) is reported as greater than 20 fold.

In the case of `C[C@]12CC[C@H](O)CC1=C(C#N)C[C@@H]1[C@@H]2CC[C@]2(C)C(c3cccnc3)=CC[C@@H]12` [compound 7, 3β-Hydroxy-17-(3-pyridyl)androsta-5,16-dien-6-carbonitrile], the “increase in IC50 for CYP17A1” value (CYP17A1 [1]) is reported as 3 fold.

In the case of `C[C@]12CC[C@H](O)C[C@@H]1NC(=O)C[C@@H]1[C@@H]2CC[C@]2(C)C(c3cccnc3)=CC[C@@H]12` [14b, 6-Aza-7-oxo-17-(3-pyridyl)-B-homo-5α-androst-16-en-3β-ol], the “selectivity for CYP17A1 inhibition over CYP21A2 inhibition” value (CYP17A1 [1]; progesterone hydroxylation reactions) is reported as “ca. 16 fold”.

For `C[C@]12CC[C@H](O)CC1=C(C(N)=O)C[C@@H]1[C@@H]2CC[C@]2(C)C(c3cccnc3)=CC[C@@H]12` [compound 8, 3β-Hydroxy-17-(3-pyridyl)androsta-5,16-dien-6-carboxamide], the “increase in IC50 for CYP17A1” value (CYP17A1 [1]) was 4.6 fold and the “increase in IC50 for CYP21A2” value (CYP21A2 [2]; relative to abiraterone) was 20 fold.

`C[C@]12CC[C@H]3[C@@H](C[C@@H]4O[C@@]45C[C@@H](O)CC[C@]35C)[C@@H]1CC=C2c1cccnc1` [6b, 5α,6α-Epoxy-17-(3-pyridyl)androst-16-en-3β-ol] gave an IC50 (CYP17A1 [1]) of 7.83 ± 0.92 nM and an IC50 (CYP21A2 [2]) of 42.1 ± 8.5 nM.
